What was measured:
Format in all cases: in vivo, rat
IgE [1] = experiment: Ovalbumin-specific IgE ELISA of serum of immunised rats; settings: Day 1; 250 ug with 20 μg Ova s.c. on days 21 and 42; pooled group serum
IgG1 = experiment: Ovalbumin-specific IgG1 ELISA of serum of immunised rats; settings: pooled group serum
Protocol: (§1) Rats were injected with vaccine compositions comprising the ovalbumin antigen with and without di-oleoyl phosphatidyl serine, lyso-oleoyl phosphatidyl serine or stearoyl(X1)-arachidonoyl(X2) phosphatidyl serine and the concentrations of IgE, IgA and IgG are compared.
(§2) The animals were acclimatised for a period of 5 days prior to dosing. During the acclimatisation period animals were observed twice daily during the working week and once on each day during the weekend to evaluate the health status of the animals. Rats were then allocated to the following dose groups using computer-generated random order numbers.
(§3) On day 0, 20 μg of ovalbumin (OA) in phosphate buffered saline (PBS) with alhydrogel (AHG) adjuvant in a final volume of 0.5 mL was administered.
(§4) On days 21 and 42, 20 μg of ovalbumin (OA) in phosphate buffered saline (PBS) with the relevant test compound in a final volume of 0.5 ml was administered.
(§5) In each case, 0.5 mL of inoculum was injected subcutaneously into the scruff of the neck. […]
(§6) Serum was prepared by centrifugation of the blood sample at 2,500 rpm for 10 minutes and frozen at −20° C. The samples were then analysed by ELISA to establish the concentration of IgE, IgA and IgG1, IgG2a and IgG2b.
The purpose of an ELISA is to determine whether a particular protein is present in a sample and then enables quantification of how much is present. By coating the bottom of wells with ovalbumin (OVA) it is possible to bind anti-OVA specific antibodies. […] Quantification of specific antibodies in the rat sera samples was performed using antibody titrations. The data was reported as endpoint titers. Endpoint titers are defined as the last serum dilution giving an optical density value equal to twice the background optical density for the ELISA plate (buffer).

IgA [2] = experiment: Ovalbumin-specific IgA ELISA of serum of immunised rats; settings: Day 1; 50 ug with 20 μg Ova s.c. on days 21 and 42; pooled group serum
IgG2a = experiment: Ovalbumin-specific IgG2a ELISA of serum of immunised rats; settings: pooled group serum
Protocol: as §1, §2, §3, §4, §5, §6
(§7) The purpose of an ELISA is to determine whether a particular protein is present in a sample and then enables quantification of how much is present. By coating the bottom of wells with ovalbumin (OVA) it is possible to bind anti-OVA specific antibodies. To detect only anti-OVA IgA antibodies anti-rat IgA conjugated to HRP was used as a secondary antibody. Quantification of specific antibodies in the rat sera samples was performed using antibody titrations. The data was reported as endpoint titers. Endpoint titers are defined as the last serum dilution giving an optical density value equal to twice the background optical density for the ELISA plate (buffer).

IgG2b = experiment: Ovalbumin-specific IgG2b ELISA of serum of immunised rats; settings: pooled group serum
Protocol: as §1, §2, §3, §4
(§8) In each case, 0.5 mL of inoculum was injected subcutaneously into the scruff of the neck.
(§9) […] A blood sample was also taken from each animal on Days 15, 22, 29, 36, 43, 50, 57 and 64.
as §6, §7

IgA [3] = experiment: Ovalbumin-specific IgA ELISA of serum of immunised rats; settings: pooled group serum
Protocol: as §1, §2, §3, §4, §8
On Day 0 a pre-inoculation blood sample was taken. A blood sample was also taken from each animal on Days 15, 22, 29, 36, 43, 50, 57 and 64.
as §6, §7

IgE [4] = experiment: Ovalbumin-specific IgE ELISA of serum of immunised rats; settings: pooled group serum
Protocol: as §1, §2, §3, §4, §8, §9, §6, §7

[5] = Day 1, 50 ug with 20 μg Ova s.c. on days 21 and 42
[6] = Day 1, 250 ug with 20 μg Ova s.c. on days 21 and 42
[7] = Day 15, 50 ug with 20 μg Ova s.c. on days 21 and 42
[8] = Day 15, 250 ug with 20 μg Ova s.c. on days 21 and 42
[9] = Day 22, 50 ug with 20 μg Ova s.c. on days 21 and 42
[10] = Day 22, 250 ug with 20 μg Ova s.c. on days 21 and 42
[11] = Day 29, 50 ug with 20 μg Ova s.c. on days 21 and 42
[12] = Day 29, 250 ug with 20 μg Ova s.c. on days 21 and 42
[13] = Day 36, 50 ug with 20 μg Ova s.c. on days 21 and 42
[14] = Day 36, 250 ug with 20 μg Ova s.c. on days 21 and 42
[15] = Day 43, 50 ug with 20 μg Ova s.c. on days 21 and 42
[16] = Day 43, 250 ug with 20 μg Ova s.c. on days 21 and 42
[17] = Day 50, 50 ug with 20 μg Ova s.c. on days 21 and 42
[18] = Day 50, 250 ug with 20 μg Ova s.c. on days 21 and 42
[19] = Day 57, 50 ug with 20 μg Ova s.c. on days 21 and 42
[20] = Day 57, 250 ug with 20 μg Ova s.c. on days 21 and 42
[21] = Day 64, 50 ug with 20 μg Ova s.c. on days 21 and 42
[22] = Day 64, 250 ug with 20 μg Ova s.c. on days 21 and 42

SMILES: CCCCC/C=C\C/C=C\C/C=C\C/C=C\CCCC(=O)O[C@H](COC(=O)CCCCCCCCCCCCCCCCC)COP(=O)(O)OC[C@H](N)C(=O)O [VT003, Stearoyl arachadonoyl phosphatidyl serine]
- IgE endpoint titer (IgE [1]): 0
- IgG1 endpoint titer (IgG1; [5]): 0
- IgG1 endpoint titer (IgG1; [6]): 0
- IgG1 endpoint titer (IgG1; [7]): 320
- IgG1 endpoint titer (IgG1; [8]): 320
- IgG1 endpoint titer (IgG1; [9]): 2560
- IgG1 endpoint titer (IgG1; [10]): 2560
- IgG1 endpoint titer (IgG1; [11]): 20480
- IgG1 endpoint titer (IgG1; [12]): 20480
- IgG1 endpoint titer (IgG1; [13]): 20480
- IgG1 endpoint titer (IgG1; [14]): 20480
- IgG1 endpoint titer (IgG1; [15]): 20480
- IgG1 endpoint titer (IgG1; [16]): 10240
- IgG1 endpoint titer (IgG1; [17]): 20480
- IgG1 endpoint titer (IgG1; [18]): 10240
- IgG1 endpoint titer (IgG1; [19]): 10240
- IgG1 endpoint titer (IgG1; [20]): 10240
- IgG1 endpoint titer (IgG1; [21]): 40960
- IgG1 endpoint titer (IgG1; [22]): 20480
- IgA endpoint titer (IgA [2]): 0
- IgG2a endpoint titer (IgG2a; [5]): 0
- IgG2a endpoint titer (IgG2a; [6]): 0
- IgG2a endpoint titer (IgG2a; [7]): 40
- IgG2a endpoint titer (IgG2a; [8]): 40
- IgG2a endpoint titer (IgG2a; [9]): 1280
- IgG2a endpoint titer (IgG2a; [10]): 1280
- IgG2a endpoint titer (IgG2a; [11]): 2560
- IgG2a endpoint titer (IgG2a; [12]): 2560
- IgG2a endpoint titer (IgG2a; [13]): 10240
- IgG2a endpoint titer (IgG2a; [14]): 5120
- IgG2a endpoint titer (IgG2a; [15]): 10240
- IgG2a endpoint titer (IgG2a; [16]): 5120
- IgG2a endpoint titer (IgG2a; [17]): 20480
- IgG2a endpoint titer (IgG2a; [18]): 20480
- IgG2a endpoint titer (IgG2a; [19]): 10240
- IgG2a endpoint titer (IgG2a; [20]): 10240
- IgG2a endpoint titer (IgG2a; [21]): 20480
- IgG2a endpoint titer (IgG2a; [22]): 20480
- IgG2b endpoint titer (IgG2b; [5]): 0
- IgG2b endpoint titer (IgG2b; [6]): 0
- IgG2b endpoint titer (IgG2b; [7]): 40
- IgG2b endpoint titer (IgG2b; [8]): 40
- IgG2b endpoint titer (IgG2b; [9]): 320
- IgG2b endpoint titer (IgG2b; [10]): 80
- IgG2b endpoint titer (IgG2b; [11]): 40
- IgG2b endpoint titer (IgG2b; [12]): 80
- IgG2b endpoint titer (IgG2b; [13]): 640
- IgG2b endpoint titer (IgG2b; [14]): 640
- IgG2b endpoint titer (IgG2b; [15]): 320
- IgG2b endpoint titer (IgG2b; [16]): 1280
- IgG2b endpoint titer (IgG2b; [17]): 160
- IgG2b endpoint titer (IgG2b; [18]): 320
- IgG2b endpoint titer (IgG2b; [19]): 640
- IgG2b endpoint titer (IgG2b; [20]): 1280
- IgG2b endpoint titer (IgG2b; [21]): 640
- IgG2b endpoint titer (IgG2b; [22]): 1280
- IgA endpoint titer (IgA [3]; [6]): 0
- IgA endpoint titer (IgA [3]; [7]): 0
- IgA endpoint titer (IgA [3]; [8]): 0
- IgA endpoint titer (IgA [3]; [9]): 0
- IgA endpoint titer (IgA [3]; [10]): 0
- IgA endpoint titer (IgA [3]; [11]): 40
- IgA endpoint titer (IgA [3]; [12]): 40
- IgA endpoint titer (IgA [3]; [13]): 640
- IgA endpoint titer (IgA [3]; [14]): 160
- IgA endpoint titer (IgA [3]; [15]): 640
- IgA endpoint titer (IgA [3]; [16]): 320
- IgA endpoint titer (IgA [3]; [17]): 1280
- IgA endpoint titer (IgA [3]; [18]): 640
- IgA endpoint titer (IgA [3]; [19]): 640
- IgA endpoint titer (IgA [3]; [20]): 640
- IgA endpoint titer (IgA [3]; [21]): 640
- IgA endpoint titer (IgA [3]; [22]): 1280
- IgE endpoint titer (IgE [4]; [5]): 0
- IgE endpoint titer (IgE [4]; [7]): 0
- IgE endpoint titer (IgE [4]; [8]): 0
- IgE endpoint titer (IgE [4]; [9]): 0
- IgE endpoint titer (IgE [4]; [10]): 0
- IgE endpoint titer (IgE [4]; [11]): 0
- IgE endpoint titer (IgE [4]; [12]): 0
- IgE endpoint titer (IgE [4]; [13]): 0
- IgE endpoint titer (IgE [4]; [14]): 0
- IgE endpoint titer (IgE [4]; [15]): 0
- IgE endpoint titer (IgE [4]; [16]): 0
- IgE endpoint titer (IgE [4]; [17]): 320
- IgE endpoint titer (IgE [4]; [18]): 80
- IgE endpoint titer (IgE [4]; [19]): 80
- IgE endpoint titer (IgE [4]; [20]): 40
- IgE endpoint titer (IgE [4]; [21]): 40
- IgE endpoint titer (IgE [4]; [22]): 20
